This passage reports melting point results from patent US8546383B2, “Chiral fused [1,2]imidazo[4,5-c] ring compounds” (3M Innovative Properties Company, priority 2004, dated 2013).

Broadly, the melting point is the temperature of the solid-liquid transition.

Structures are written as SMILES. Counter-ions that a name gives are not always drawn.

`Nc1nc2ccccc2c2c1nc1n2[C@@H](c2cc(-c3ccc(F)cc3)no2)COC1` [Example 50, (11R)-11-[3-(4-Fluorophenyl)isoxazol-5-yl]-10,11-dihydro-8H-[1,4]oxazino[4′,3′:1,2]imidazo[4,5-c]quinolin-6-amine] showed a melting point of 261 to 262 °C.
As to `C[C@@H]1COCc2nc3c(N)nc4ccccc4c3n21` [Example 26], the melting point was 280 to 282 °C.
Consider `Nc1nc2ccccc2c2c1nc1n2[C@H](c2ccccc2)COC1` [Example 28], for which the melting point was 284 to 286 °C.
The value for `CC1COCc2nc3c(N)nc4ccc(OCc5ccccc5)cc4c3n21` (stereo in doubt) [Example 18, (11R)-2-(Benzyloxy)-11-methyl-10,11-dihydro-8H-[1,4]oxazino[4′,3′:1,2]imidazo[4,5-c]quinolin-6-amine] was 100 to 120 °C; that for `C[C@H]1COCc2nc3c(N)nc4ccccc4c3n21` [Example 5, (11S)-11-Methyl-10,11-dihydro-8H-[1,4]oxazino[4′,3′:1,2]imidazo[4,5-c]quinolin-6-amine] was 280 to 282 °C.
The value for `CC(C)(F)[C@H]1COCc2nc3c(N)nc4cc(O)ccc4c3n21` [Example 17, (11R)-6-Amino-11-(1-fluoro-1-methylethyl)-10,11-dihydro-8H-[1,4]oxazino[4′,3′:1,2]imidazo[4,5-c]quinolin-3-ol] was 219 to 221 °C; that for `CC(C)[C@H]1COCc2nc3c(N)nc4cc(OCc5ccccc5)ccc4c3n21` [Example 3, (11S)-3-(Benzyloxy)-11-isopropyl-10,11-dihydro-8H-[1,4]oxazino[4′,3′:1,2]imidazo[4,5-c]quinolin-6-amine] was 227 to 229 °C.
The value for `Cc1nc(COc2ccc3nc(N)c4nc5n(c4c3c2)[C@@H](C)COC5)cs1` [Example 52, (11S)-11-Methyl-2-[(2-methyl-1,3-thiazol-4-yl)methoxy]-10,11-dihydro-8H-[1,4]oxazino[4′,3′:1,2]imidazo[4,5-c]quinolin-6-amine] was 105 to 107 °C.
As for `CC(C)[C@H]1COCc2nc3c(N)nc4cccnc4c3n21` [Example 14, (11S)-11-Isopropyl-10,11-dihydro-8H-[1,4]oxazino[4′,3′:1,2]imidazo[4,5-c][1,5]naphthyridin-6-amine], the melting point was in the range of 194 to 196 °C.
The result for `C[C@H]1COCc2nc3c(N)nc4c(c3n21)CCCC4` [Example 6, (11S)-11-Methyl-2,3,4,8,10,11-hexahydro-1H-[1,4]oxazino[4′,3′:1,2]imidazo[4,5-c]quinolin-6-amine] reads 209 to 211 °C.
`C[C@H]1COCc2nc3c(N)nc4ccc(OC(=O)N5CCCC5)cc4c3n21` [Example 53, (11S)-6-Amino-11-methyl-10,11-dihydro-8H-[1,4]oxazino[4′,3′:1,2]imidazo[4,5-c]quinolin-2-ylpyrrolidine-1-carboxylate]: the melting point fell in the range of 218 to 219 °C.
With `Nc1nc2ccccc2c2c1nc1n2[C@@H](Cc2ccc(O)cc2)COC1` (as salt: hydrochloride) [Example 48, 4-{[(11S)-6-Amino-10,11-dihydro-8H-[1,4]oxazino[4′,3′:1,2]imidazo[4,5-c]quinolin-11-yl]methyl}phenol], the melting point is > 240 °C (dec.).
On to `CN1CCN(C[C@H]2COCc3nc4c(N)nc5ccccc5c4n32)CC1` [Example 37, (11S)-11-[(4-Methylpiperazin-1-yl)methyl]-10,11-dihydro-8H-[1,4]oxazino[4′,3′:1,2]imidazo[4,5-c]quinolin-6-amine], for which the melting point fell in the range of 187 to 190 °C.
The result for `Nc1nc2ccccc2c2c1nc1n2[C@@H](Cc2ccccc2)COC1` [Example 10, (11S)-11-Benzyl-10,11-dihydro-8H-[1,4]oxazino[4′,3′:1,2]imidazo[4,5-c]quinolin-6-amine] reads 170 to 177 °C.
Regarding `COc1ccc(C[C@H]2COCc3nc4c(N)nc5ccccc5c4n32)cc1` [Example 49, (11S)-11-(4-Methoxybenzyl)-10,11-dihydro-8H-[1,4]oxazino[4′,3′:1,2]imidazo[4,5-c]quinolin-6-amine], the melting point was in the range of 115 to 130 °C.
The value for `C[C@@H](OCc1ccccc1)[C@H]1COCc2nc3c(N)nc4ccccc4c3n21` [Example 38, (11R)-11-[(1R)-1-(benzyloxy)ethyl]-10,11-dihydro-8H-[1,4]oxazino[4′,3′:1,2]imidazo[4,5-c]quinolin-6-amine] was 189 to 190.8 °C; that for `C[C@H]1COCc2nc3c(N)nc4cc(CCS(C)(=O)=O)ccc4c3n21` [Example 61, (11S)-11-Methyl-3-[2-(methylsulfonyl)ethyl]-10,11-dihydro-8H-[1,4]oxazino[4′,3′:1,2]imidazo[4,5-c]quinolin-6-amine] was 205 to 206 °C.
The result for `C[C@@H]1CN(S(C)(=O)=O)Cc2nc3c(N)nc4ccccc4c3n21` [Example 32, (11R)-11-Methyl-9-(methylsulfonyl)-8,9,10,11-tetrahydropyrazino[1′,2′:1,2]imidazo[4,5-c]quinolin-6-amine] reads 258 to 261 °C; that for `C[C@H]1COCc2nc3c(N)nc4cc(/C=C/C(=O)N5CCOCC5)ccc4c3n21` [Example 62, (11S)-11-Methyl-3-[(1E)-3-morpholin-4-yl-3-oxoprop-1-enyl]-10,11-dihydro-8H-[1,4]oxazino[4′,3′:1,2]imidazo[4,5-c]quinolin-6-amine], greater than 250 °C.
In the case of `C[C@H]1COCc2nc3c(N)nc4ccc(OCC(=O)N5CCOCC5)cc4c3n21` [Example 55, (11S)-11-Methyl-2-(2-morpholin-4-yl-2-oxoethoxy)-10,11-dihydro-8H-[1,4]oxazino[4′,3′:1,2]imidazo[4,5-c]quinolin-6-amine], the melting point lay within 226 to 228 °C.
On to `C[C@H](OCc1ccccc1)[C@H]1COCc2nc3c(N)nc4ccccc4c3n21` [Example 40, (11R)-11-[(1S)-1-(benzyloxy)ethyl]-10,11-dihydro-8H-[1,4]oxazino[4′,3′:1,2]imidazo[4,5-c]quinolin-6-amine], for which the melting point was in the range of 86.6 to 89.7 °C.
The compound `Nc1nc2ccccc2c2c1nc1n2[C@@H](c2ccccc2)COC1` [Example 9, (11S)-11-Phenyl-10,11-dihydro-8H-[1,4]oxazino[4′,3′:1,2]imidazo[4,5-c]quinolin-6-amine] showed a melting point of 284 to 286 °C.
The value for `Nc1nc2ccccc2c2c1nc1n2[C@@H](CCl)COC1` [Example 36, (11R)-11-(Chloromethyl)-10,11-dihydro-8H-[1,4]oxazino[4′,3′:1,2]imidazo[4,5-c]quinolin-6-amine] was 230 to 232 °C; that for `C[C@H]1COCc2nc3c(N)nc4cccnc4c3n21` [Example 15, (11S)-11-Methyl-10,11-dihydro-8H-[1,4]oxazino[4′,3′:1,2]imidazo[4,5-c][1,5]naphthyridin-6-amine] was 240 to 242 °C; that for `Cc1nc(N)c2nc3n(c2c1C)[C@@H](C)COC3` [Example 44, (4S)-4,6,7-Trimethyl-3,4-dihydro-1H-pyrido[3′,4′:4,5]imidazo[2,1-c][1,4]oxazin-9-amine] was 264 to 267 °C.
The compound `CC(C)(F)[C@H]1COCc2nc3c(N)nc4cccnc4c3n21` [Example 16, (11R)-11-(1-Fluoro-1-methylethyl)-10,11-dihydro-8H-[1,4]oxazino[4′,3′:1,2]imidazo[4,5-c][1,5]naphthyridin-6-amine] displayed a melting point of 192 to 194 °C.
`Nc1nc2ccccc2c2c1nc1n2[C@@H](Cc2ccc(F)cc2)COC1` [Example 46, (11S)-11-(4-Fluorobenzyl)-10,11-dihydro-8H-[1,4]oxazino[4′,3′:1,2]imidazo[4,5-c]quinolin-6-amine] came in with a melting point of 170 to 172 °C.
`CC(C)(F)[C@@H]1COCc2nc3c(N)nc4ccccc4c3n21` [Example 30] had a melting point of 242 to 244 °C.
The result for `C#CCOc1ccc2nc(N)c3nc4n(c3c2c1)[C@@H](C)COC4` [Example 51, (11S)-11-Methyl-2-(prop-2-ynyloxy)-10,11-dihydro-8H-[1,4]oxazino[4′,3′:1,2]imidazo[4,5-c]quinolin-6-amine] reads 184 to 186 °C.
The result for `C[C@@H]1COCc2nc3c(N)nc4c(c3n21)CCCC4` [Example 27] reads 209 to 211 °C.
`Nc1nc2ccccc2c2c1nc1n2[C@@H](COCc2ccccc2)COC1` [Example 34, (11S)-11-[(Benzyloxy)methyl]-10,11-dihydro-8H-[1,4]oxazino[4′,3′:1,2]imidazo[4,5-c]quinolin-6-amine] came in with a melting point of 184.6 to 186.2 °C.
The value for `C[C@H]1COCc2nc3c(N)nc4cc(OCc5ccccc5)ccc4c3n21` [Example 7, (11S)-3-(Benzyloxy)-11-methyl-10,11-dihydro-8H-[1,4]oxazino[4′,3′:1,2]imidazo[4,5-c]quinolin-6-amine] was 218 to 220 °C; that for `Nc1nc2ccccc2c2c1nc1n2[C@@H](C2CCOCC2)COC1` [Example 43, (11S)-11-Tetrahydro-2H-pyran-4-yl-10,11-dihydro-8H-[1,4]oxazino[4′,3′:1,2]imidazo[4,5-c]quinolin-6-amine] was 240.4 to 243.4 °C.
The value for `CC(C)[C@H]1COCc2nc3c(N)nc4cc(OCCN5CCOCC5)ccc4c3n21` [Example 59, (11S)-11-Isopropyl-3-(2-morpholin-4-ylethoxy)-10,11-dihydro-8H-[1,4]oxazino[4′,3′:1,2]imidazo[4,5-c]quinolin-6-amine] was 194 to 195 °C; that for `Nc1nc2ccccc2c2c1nc1n2[C@@H](C2CCCCC2)COC1` [Example 47, (11S)-11-Cyclohexyl-10,11-dihydro-8H-[1,4]oxazino[4′,3′:1,2]imidazo[4,5-c]quinolin-6-amine] was 228 to 230 °C.
`C[C@H]1COCc2nc3c(N)nc4ccc(OCc5cscn5)cc4c3n21` [Example 54, (11S)-11-Methyl-2-(1,3-thiazol-4-ylmethoxy)-10,11-dihydro-8H-[1,4]oxazino[4′,3′:1,2]imidazo[4,5-c]quinolin-6-amine] yielded a melting point of 240 to 242 °C.
The value for `CC(C)(O)[C@@H]1COCc2nc3c(N)nc4ccccc4c3n21` (as salt: hydrochloride) [Example 31] was 218 to 219 °C.
